Here are results for three molecules from PubChem BioAssay (NCI).

Some test systems named below: HOP-18 NSCLC; NCI-H23 lung; RXF 393 renal; MDA-MB-231 breast; RPMI-8226 leukemia; OVCAR-3 ovarian; T-47D breast; DMS 114 small cell lung; SNB-78 CNS; UO-31 renal.
Common to all, as to experiment: NCI tumour cell line growth inhibition, 48 h

Molecules are shown by their SMILES. “And” between values parts separate entries of the source, which are not always exact repeats. Equal values may be shown once.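 The compound was tested at five concentrations on cells cultured in 96-well plates, with a 48-hour exposure period. GI50 = concentration required for 50% inhibition of growth. The concentration for full growth arrest is given as TGI.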 Where only a bound is given, the exact number is not on record here.

As to `CC(C)c1ccc(O)c(=O)cc1`, the TGI in the assay with HOP-18 NSCLC was over 56.1 µM; in the assay with NCI-H23 lung it was over 74 µM; with RXF 393 renal it was over 86.2 µM; with RPMI-8226 leukemia, over 80.5 µM; in the assay with OVCAR-3 ovarian, > 100 µM and 18.3 µM; with DMS 114 small cell lung, 11.5 µM. The TGI was over 91.1 µM in the assay with SNB-78 CNS; 35.7 µM and 71.7 µM in the assay with UO-31 renal. For the same molecule, the GI50 in the assay on NCI-H23 lung was 17.2 µM; in the assay with MDA-MB-231 breast it was 13.4 µM; in the assay with RPMI-8226 leukemia, 6.35 µM; with OVCAR-3 ovarian, 2.03 µM; with T-47D breast it was 21 µM; in the assay on UO-31 renal, 6.31 µM.
Turning to `Cc1nn(C)c(=S)n(C)c1=O`, the TGI in the assay on HOP-18 NSCLC is 4.89 µM; with NCI-H23 lung, 10.6 µM; in the assay on RXF 393 renal it was 7.33 µM; with RPMI-8226 leukemia, 14.8 µM; with OVCAR-3 ovarian, over 100 µM; in the assay with DMS 114 small cell lung, 0.842 µM. In addition, the TGI with SNB-78 CNS was over 100 µM; in the assay with UO-31 renal it was 0.753 µM.
As for `Cc1nn(C)c(=O)c2nn(-c3ccccc3)c(C)c12`, the TGI in the assay with HOP-18 NSCLC, with NCI-H23 lung, in the assay on RXF 393 renal, in the assay with RPMI-8226 leukemia, in the assay with OVCAR-3 ovarian and in the assay with DMS 114 small cell lung was over 100 µM each time. Further, the TGI in the assay with SNB-78 CNS and with UO-31 renal was over 100 µM throughout.
